Results: the kinase profiling compilation of Christmann-Franck et al. (2016)

Experiments:
Experiment in all cases: KINOMEscan competition binding
Details in all cases: compound 10.0 µM
AURKC (human) = AURKC (human) (UniProt Q9UQB9)
CAMK1D (human) = CAMK1D (human) (UniProt Q8IU85)
CAMKK2 (human) = CAMKK2 (human) (UniProt Q96RR4)
CDC2L2 (human) = CDC2L2 (human) (UniProt Q9UQ88)
CDK4 CCND1 (human) = CDK4 CCND1 (human) (UniProt P11802+P24385)
CDK9 (human) = CDK9 (human) (UniProt P50750)
CIT (human) = CIT (human) (UniProt O14578)
DYRK2 (human) = DYRK2 (human) (UniProt Q92630)
Sequence of DYRK2 (human) (Q92630 whole entry, looked up): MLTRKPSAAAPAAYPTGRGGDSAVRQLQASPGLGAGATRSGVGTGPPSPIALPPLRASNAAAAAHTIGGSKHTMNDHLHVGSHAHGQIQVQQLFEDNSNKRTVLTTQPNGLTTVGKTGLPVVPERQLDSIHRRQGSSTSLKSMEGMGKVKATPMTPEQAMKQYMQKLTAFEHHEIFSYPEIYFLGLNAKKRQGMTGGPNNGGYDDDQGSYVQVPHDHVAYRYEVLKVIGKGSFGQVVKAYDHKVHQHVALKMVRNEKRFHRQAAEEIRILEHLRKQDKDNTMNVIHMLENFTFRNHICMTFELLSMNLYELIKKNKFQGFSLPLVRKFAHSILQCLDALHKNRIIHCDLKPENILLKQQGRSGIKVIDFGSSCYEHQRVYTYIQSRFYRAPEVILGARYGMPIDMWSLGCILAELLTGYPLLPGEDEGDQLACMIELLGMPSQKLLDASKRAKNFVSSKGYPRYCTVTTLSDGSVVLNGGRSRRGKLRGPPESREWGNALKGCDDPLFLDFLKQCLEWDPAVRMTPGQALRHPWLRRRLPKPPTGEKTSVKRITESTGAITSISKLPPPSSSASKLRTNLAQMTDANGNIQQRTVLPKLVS

[1] = test system: EGFR (human), P00533 [747-751 del / S ins]
ERBB4 (human) = ERBB4 (human) (UniProt Q15303)
[2] = test system: FLT3 (human), P36888 [ITD]
IGF1R (human) = IGF1R (human) (UniProt P08069)
[3] = biological target: JAK3 JH1 catalytic (human) (UniProt P52333)
LRRK2 (human) = LRRK2 (human) (UniProt Q5S007)
LYN (human) = LYN (human) (UniProt P07948)
MAP2K4 (human) = MAP2K4 (human) (UniProt P45985)
MAP3K11 (human) = MAP3K11 (human) (UniProt Q16584)
MAPK9 (human) = MAPK9 (human) (UniProt P45984)
MST1R (human) = MST1R (human) (UniProt Q04912)
Sequence of MST1R (human) (Q04912 whole entry, looked up): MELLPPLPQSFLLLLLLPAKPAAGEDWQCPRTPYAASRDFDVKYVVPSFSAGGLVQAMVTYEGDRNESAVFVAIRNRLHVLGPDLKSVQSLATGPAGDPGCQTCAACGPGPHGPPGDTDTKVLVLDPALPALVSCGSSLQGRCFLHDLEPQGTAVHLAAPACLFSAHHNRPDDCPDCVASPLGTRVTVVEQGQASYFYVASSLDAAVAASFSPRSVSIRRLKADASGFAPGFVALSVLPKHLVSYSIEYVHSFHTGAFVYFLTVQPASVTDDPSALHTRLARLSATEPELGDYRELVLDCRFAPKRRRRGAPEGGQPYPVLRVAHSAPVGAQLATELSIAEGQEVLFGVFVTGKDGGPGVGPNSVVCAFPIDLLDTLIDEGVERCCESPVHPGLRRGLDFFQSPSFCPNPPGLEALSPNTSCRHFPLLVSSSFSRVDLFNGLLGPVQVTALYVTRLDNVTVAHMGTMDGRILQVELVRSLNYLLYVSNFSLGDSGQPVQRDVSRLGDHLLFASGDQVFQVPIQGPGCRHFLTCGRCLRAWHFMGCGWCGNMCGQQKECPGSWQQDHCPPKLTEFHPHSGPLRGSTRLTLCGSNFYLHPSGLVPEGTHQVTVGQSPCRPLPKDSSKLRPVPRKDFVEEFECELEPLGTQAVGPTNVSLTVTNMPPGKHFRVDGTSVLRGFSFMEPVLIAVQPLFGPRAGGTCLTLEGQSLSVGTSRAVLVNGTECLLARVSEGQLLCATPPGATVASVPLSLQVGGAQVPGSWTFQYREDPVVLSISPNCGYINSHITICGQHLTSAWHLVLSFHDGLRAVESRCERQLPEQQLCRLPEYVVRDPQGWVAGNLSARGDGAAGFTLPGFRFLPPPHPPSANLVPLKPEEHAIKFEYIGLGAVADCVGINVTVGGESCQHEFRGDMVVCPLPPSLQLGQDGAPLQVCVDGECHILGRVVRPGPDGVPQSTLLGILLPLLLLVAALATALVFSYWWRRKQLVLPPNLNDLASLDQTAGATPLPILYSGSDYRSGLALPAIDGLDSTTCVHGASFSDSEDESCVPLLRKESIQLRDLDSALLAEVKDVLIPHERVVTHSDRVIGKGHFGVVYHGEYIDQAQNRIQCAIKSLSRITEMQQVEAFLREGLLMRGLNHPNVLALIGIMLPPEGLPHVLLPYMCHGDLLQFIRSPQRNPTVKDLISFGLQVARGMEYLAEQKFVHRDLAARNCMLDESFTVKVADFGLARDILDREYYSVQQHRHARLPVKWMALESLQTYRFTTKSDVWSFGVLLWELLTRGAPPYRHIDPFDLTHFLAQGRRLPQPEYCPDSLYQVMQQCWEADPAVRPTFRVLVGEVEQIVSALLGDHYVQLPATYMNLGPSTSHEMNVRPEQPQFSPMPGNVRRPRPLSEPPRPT

NEK2 (human) = NEK2 (human) (UniProt P51955)
NTRK1 (human) = NTRK1 (human) (UniProt P04629)
OXSR1 (human) = OXSR1 (human) (UniProt O95747)
PIK3CD (human) = PIK3CD (human) (UniProt O00329)
PIP5K1A (human) = PIP5K1A (human) (UniProt Q99755)
PLK1 (human) = PLK1 (human) (UniProt P53350)
PRKCD (human) = PRKCD (human) (UniProt Q05655)
PRKCE (human) = PRKCE (human) (UniProt Q02156)
Sequence of PRKCE (human) (Q02156 whole entry, looked up): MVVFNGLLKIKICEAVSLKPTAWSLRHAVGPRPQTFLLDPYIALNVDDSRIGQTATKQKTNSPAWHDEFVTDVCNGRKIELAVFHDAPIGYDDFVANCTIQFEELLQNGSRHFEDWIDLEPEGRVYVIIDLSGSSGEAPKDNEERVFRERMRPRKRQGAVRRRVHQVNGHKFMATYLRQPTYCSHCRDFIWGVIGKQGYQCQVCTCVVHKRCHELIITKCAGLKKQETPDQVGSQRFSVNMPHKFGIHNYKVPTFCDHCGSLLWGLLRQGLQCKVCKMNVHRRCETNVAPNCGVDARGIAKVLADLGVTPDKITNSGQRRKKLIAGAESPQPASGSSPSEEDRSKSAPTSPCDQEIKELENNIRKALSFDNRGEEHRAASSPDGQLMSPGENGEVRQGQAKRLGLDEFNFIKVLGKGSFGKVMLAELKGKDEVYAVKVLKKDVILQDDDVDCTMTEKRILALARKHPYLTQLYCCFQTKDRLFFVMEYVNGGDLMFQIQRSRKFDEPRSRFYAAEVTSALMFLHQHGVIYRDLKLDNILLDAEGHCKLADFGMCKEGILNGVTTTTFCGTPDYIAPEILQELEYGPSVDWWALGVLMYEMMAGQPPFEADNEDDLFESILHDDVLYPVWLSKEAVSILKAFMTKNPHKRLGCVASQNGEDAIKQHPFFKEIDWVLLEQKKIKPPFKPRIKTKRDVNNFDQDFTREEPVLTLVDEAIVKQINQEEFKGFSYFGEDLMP

PRKG1 (human) = PRKG1 (human) (UniProt Q13976)
PRPF4B (human) = PRPF4B (human) (UniProt Q13523)
RIPK1 (human) = RIPK1 (human) (UniProt Q13546)
RIPK4 (human) = RIPK4 (human) (UniProt P57078)
Sequence of RIPK4 (human) (P57078 whole entry, looked up): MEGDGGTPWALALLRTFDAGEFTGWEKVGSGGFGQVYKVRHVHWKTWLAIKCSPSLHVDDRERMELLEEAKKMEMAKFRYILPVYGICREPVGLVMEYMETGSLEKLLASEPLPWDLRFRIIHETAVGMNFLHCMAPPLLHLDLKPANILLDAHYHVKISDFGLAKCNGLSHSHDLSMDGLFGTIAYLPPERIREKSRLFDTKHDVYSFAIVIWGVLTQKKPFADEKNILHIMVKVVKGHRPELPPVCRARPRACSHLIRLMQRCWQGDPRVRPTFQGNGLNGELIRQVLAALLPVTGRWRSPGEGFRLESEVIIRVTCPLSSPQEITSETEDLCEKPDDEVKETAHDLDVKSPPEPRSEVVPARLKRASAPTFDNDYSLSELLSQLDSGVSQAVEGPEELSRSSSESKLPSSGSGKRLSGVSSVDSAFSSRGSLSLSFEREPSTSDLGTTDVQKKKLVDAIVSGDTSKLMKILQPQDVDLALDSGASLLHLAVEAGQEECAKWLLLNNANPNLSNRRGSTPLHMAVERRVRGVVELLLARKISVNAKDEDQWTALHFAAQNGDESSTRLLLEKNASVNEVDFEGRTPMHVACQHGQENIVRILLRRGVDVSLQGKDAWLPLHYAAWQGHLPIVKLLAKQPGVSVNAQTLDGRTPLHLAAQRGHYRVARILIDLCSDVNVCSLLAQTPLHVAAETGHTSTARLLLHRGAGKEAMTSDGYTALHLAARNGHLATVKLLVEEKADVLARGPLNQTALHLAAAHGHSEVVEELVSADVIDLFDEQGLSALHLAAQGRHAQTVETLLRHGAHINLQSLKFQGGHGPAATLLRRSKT

SRMS (human) = SRMS (human) (UniProt Q9H3Y6)
STK33 (human) = STK33 (human) (UniProt Q9BYT3)
STK38L (human) = STK38L (human) (UniProt Q9Y2H1)
STK39 (human) = STK39 (human) (UniProt Q9UEW8)
TAOK1 (human) = TAOK1 (human) (UniProt Q7L7X3)
TNNI3K (human) = TNNI3K (human) (UniProt Q59H18)
[4] = biological target: TYK2 JH2 pseudokinase (human) (UniProt P29597)
Sequence of TYK2 JH2 pseudokinase (human) (P29597 whole entry, looked up): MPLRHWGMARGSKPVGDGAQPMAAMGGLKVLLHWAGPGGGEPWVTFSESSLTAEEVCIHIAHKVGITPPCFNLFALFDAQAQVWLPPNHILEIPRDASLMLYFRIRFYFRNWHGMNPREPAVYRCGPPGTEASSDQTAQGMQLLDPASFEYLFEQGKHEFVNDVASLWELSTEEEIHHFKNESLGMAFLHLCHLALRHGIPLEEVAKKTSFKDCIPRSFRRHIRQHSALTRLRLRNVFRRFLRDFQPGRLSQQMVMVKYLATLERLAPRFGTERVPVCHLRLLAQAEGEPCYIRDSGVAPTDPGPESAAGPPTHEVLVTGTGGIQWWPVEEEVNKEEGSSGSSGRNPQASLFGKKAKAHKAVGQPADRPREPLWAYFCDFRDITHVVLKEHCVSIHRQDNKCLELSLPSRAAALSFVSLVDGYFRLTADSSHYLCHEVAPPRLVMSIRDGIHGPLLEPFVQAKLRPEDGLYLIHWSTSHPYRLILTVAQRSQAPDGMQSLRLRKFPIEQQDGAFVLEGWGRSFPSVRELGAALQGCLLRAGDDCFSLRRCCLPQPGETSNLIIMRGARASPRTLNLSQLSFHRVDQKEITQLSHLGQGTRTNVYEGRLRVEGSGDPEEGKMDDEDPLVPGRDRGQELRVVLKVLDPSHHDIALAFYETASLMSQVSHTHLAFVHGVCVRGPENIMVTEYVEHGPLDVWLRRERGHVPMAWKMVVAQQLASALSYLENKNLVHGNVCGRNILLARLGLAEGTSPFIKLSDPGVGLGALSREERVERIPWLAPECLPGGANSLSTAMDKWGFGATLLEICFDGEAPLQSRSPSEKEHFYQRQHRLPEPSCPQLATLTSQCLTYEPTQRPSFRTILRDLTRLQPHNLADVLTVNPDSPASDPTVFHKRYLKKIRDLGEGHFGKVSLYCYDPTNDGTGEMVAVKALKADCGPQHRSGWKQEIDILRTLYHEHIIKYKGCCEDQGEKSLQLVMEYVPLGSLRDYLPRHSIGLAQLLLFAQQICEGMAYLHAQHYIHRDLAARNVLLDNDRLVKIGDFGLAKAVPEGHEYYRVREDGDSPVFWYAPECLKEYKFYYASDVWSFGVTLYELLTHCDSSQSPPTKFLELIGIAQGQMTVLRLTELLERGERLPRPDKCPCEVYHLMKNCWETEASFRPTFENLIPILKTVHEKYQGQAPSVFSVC

CHEK1 (human) = CHEK1 (human) (UniProt O14757)
[5] = test system: KIT (human), P10721 [D816H]
[6] = test system: KIT (human), P10721 [V559D/T670I]

Sequence of AURKC (human) (Q9UQB9 whole entry, looked up): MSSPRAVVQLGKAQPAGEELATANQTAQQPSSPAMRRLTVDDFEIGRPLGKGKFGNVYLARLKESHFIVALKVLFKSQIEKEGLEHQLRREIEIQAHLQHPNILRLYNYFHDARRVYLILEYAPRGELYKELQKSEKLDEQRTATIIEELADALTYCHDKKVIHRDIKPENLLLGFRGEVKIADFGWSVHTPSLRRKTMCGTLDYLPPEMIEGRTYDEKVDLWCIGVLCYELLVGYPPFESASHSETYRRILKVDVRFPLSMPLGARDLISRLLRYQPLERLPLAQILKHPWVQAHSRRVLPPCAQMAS

Question: Which kinase still bound, per cent of control (AURKC (human)) does the source give for `CCC(=O)N1CCN(c2ccc(-n3c(=O)ccc4cnc5ccc(-c6cnc7ccccc7c6)cc5c43)cc2C(F)(F)F)CC1` here?
Answer: 91%

Question: And the kinase still bound, per cent of control (CAMK1D (human))?
Answer: 88%

Question: What about the kinase still bound, per cent of control (CAMKK2 (human)) of the same molecule?
Answer: 85%

Question: What about the per cent of control (CDC2L2 (human)) of the same molecule?
Answer: 100%

Question: And the per cent of control (CDK4 CCND1 (human))?
Answer: 100%

Question: What about the per cent of control (CDK9 (human)) of the same molecule?
Answer: 94%

Question: And the kinase still bound, per cent of control (CIT (human))?
Answer: 59%

Question: What about the kinase still bound, per cent of control (DYRK2 (human)) of the same molecule?
Answer: 86%

Question: And the kinase still bound, per cent of control [1]?
Answer: 80%

Question: And the kinase still bound, per cent of control (ERBB4 (human))?
Answer: 100%

Question: And the kinase still bound, per cent of control [2]?
Answer: 29%

Question: And the per cent of control (IGF1R (human))?
Answer: 94%

Question: What about the kinase still bound, per cent of control [3] of the same molecule?
Answer: 100%

Question: And the kinase still bound, per cent of control (LRRK2 (human))?
Answer: 81%

Question: And the kinase still bound, per cent of control (LYN (human))?
Answer: 79%

Question: What about the kinase still bound, per cent of control (MAP2K4 (human)) of the same molecule?
Answer: 30%

Question: And the kinase still bound, per cent of control (MAP3K11 (human))?
Answer: 69%

Question: And the kinase still bound, per cent of control (MAPK9 (human))?
Answer: 40%

Question: What about the kinase still bound, per cent of control (MST1R (human)) of the same molecule?
Answer: 55%

Question: And the kinase still bound, per cent of control (NEK2 (human))?
Answer: 90%

Question: And the kinase still bound, per cent of control (NTRK1 (human))?
Answer: 64%

Question: What about the kinase still bound, per cent of control (OXSR1 (human)) of the same molecule?
Answer: 100%

Question: What about the kinase still bound, per cent of control (PIK3CD (human)) of the same molecule?
Answer: 51%

Question: What about the kinase still bound, per cent of control (PIP5K1A (human)) of the same molecule?
Answer: 89%

Question: And the kinase still bound, per cent of control (PLK1 (human))?
Answer: 85%

Question: And the kinase still bound, per cent of control (PRKCD (human))?
Answer: 82%

Question: And the kinase still bound, per cent of control (PRKCE (human))?
Answer: 86%

Question: And the kinase still bound, per cent of control (PRKG1 (human))?
Answer: 86%

Question: And the kinase still bound, per cent of control (PRPF4B (human))?
Answer: 100%

Question: And the kinase still bound, per cent of control (RIPK1 (human))?
Answer: 1.9%

Question: What about the kinase still bound, per cent of control (RIPK4 (human)) of the same molecule?
Answer: 100%

Question: What about the kinase still bound, per cent of control (SRMS (human)) of the same molecule?
Answer: 92%

Question: And the kinase still bound, per cent of control (STK33 (human))?
Answer: 90%

Question: And the kinase still bound, per cent of control (STK38L (human))?
Answer: 94%

Question: What about the per cent of control (STK39 (human)) of the same molecule?
Answer: 100%

Question: And the kinase still bound, per cent of control (TAOK1 (human))?
Answer: 58%

Question: And the kinase still bound, per cent of control (TNNI3K (human))?
Answer: 66%

Question: What about the kinase still bound, per cent of control [4] of the same molecule?
Answer: 55%

Question: With `CC(C)n1nc(-c2cc3cc(O)ccc3[nH]2)c2c(N)ncnc21` as the molecule, how does the kinase still bound, per cent of control (AURKC (human)) read?
Answer: 68%

Question: What about the kinase still bound, per cent of control (CAMKK2 (human)) of the same molecule?
Answer: 30%

Question: And the per cent of control (CDC2L2 (human))?
Answer: 100%

Question: What about the per cent of control (CDK4 CCND1 (human)) of the same molecule?
Answer: 60%

Question: What about the per cent of control (CDK9 (human)) of the same molecule?
Answer: 96%

Question: What about the kinase still bound, per cent of control (CHEK1 (human)) of the same molecule?
Answer: 66%

Question: What about the kinase still bound, per cent of control (CIT (human)) of the same molecule?
Answer: 66%

Question: What about the kinase still bound, per cent of control (DYRK2 (human)) of the same molecule?
Answer: 1.4%

Question: What about the kinase still bound, per cent of control (ERBB4 (human)) of the same molecule?
Answer: 49%

Question: What about the per cent of control (IGF1R (human)) of the same molecule?
Answer: 100%

Question: What about the kinase still bound, per cent of control [3] of the same molecule?
Answer: 0%

Question: And the kinase still bound, per cent of control [5]?
Answer: 16%

Question: And the kinase still bound, per cent of control [6]?
Answer: 30%

Question: What about the kinase still bound, per cent of control (LRRK2 (human)) of the same molecule?
Answer: 4.8%

Question: And the kinase still bound, per cent of control (LYN (human))?
Answer: 12%

Question: And the kinase still bound, per cent of control (MAP2K4 (human))?
Answer: 3.4%

Question: What about the kinase still bound, per cent of control (MAP3K11 (human)) of the same molecule?
Answer: 79%

Question: What about the kinase still bound, per cent of control (MST1R (human)) of the same molecule?
Answer: 89%

Question: And the kinase still bound, per cent of control (NEK2 (human))?
Answer: 75%

Question: And the kinase still bound, per cent of control (NTRK1 (human))?
Answer: 46%

Question: And the kinase still bound, per cent of control (OXSR1 (human))?
Answer: 80%

Question: What about the kinase still bound, per cent of control (PIP5K1A (human)) of the same molecule?
Answer: 62%

Question: And the kinase still bound, per cent of control (PLK1 (human))?
Answer: 87%

Question: And the kinase still bound, per cent of control (PRKCD (human))?
Answer: 39%

Question: What about the kinase still bound, per cent of control (PRKCE (human)) of the same molecule?
Answer: 0%

Question: And the kinase still bound, per cent of control (PRKG1 (human))?
Answer: 100%

Question: What about the kinase still bound, per cent of control (PRPF4B (human)) of the same molecule?
Answer: 90%

Question: And the kinase still bound, per cent of control (RIPK1 (human))?
Answer: 100%

Question: What about the kinase still bound, per cent of control (RIPK4 (human)) of the same molecule?
Answer: 6.3%

Question: And the kinase still bound, per cent of control (SRMS (human))?
Answer: 61%

Question: What about the kinase still bound, per cent of control (STK33 (human)) of the same molecule?
Answer: 45%

Question: What about the kinase still bound, per cent of control (STK38L (human)) of the same molecule?
Answer: 63%

Question: What about the per cent of control (STK39 (human)) of the same molecule?
Answer: 97%

Question: And the kinase still bound, per cent of control (TAOK1 (human))?
Answer: 0.2%

Question: What about the kinase still bound, per cent of control (TNNI3K (human)) of the same molecule?
Answer: 14%

Question: And the kinase still bound, per cent of control [4]?
Answer: 2.6%

Question: Which kinase still bound, per cent of control (AURKC (human)) does the source give for `COc1ccc(-c2ccc3c(N4CCOCC4)nc(N4C[C@@H](C)O[C@@H](C)C4)nc3n2)cc1CO` here?
Answer: 100%

Question: What about the kinase still bound, per cent of control (CAMK1D (human)) of the same molecule?
Answer: 89%

Question: What about the kinase still bound, per cent of control (CAMKK2 (human)) of the same molecule?
Answer: 64%

Question: What about the per cent of control (CDC2L2 (human)) of the same molecule?
Answer: 100%

Question: And the per cent of control (CDK4 CCND1 (human))?
Answer: 70%

Question: What about the per cent of control (CDK9 (human)) of the same molecule?
Answer: 98%

Question: And the kinase still bound, per cent of control (CHEK1 (human))?
Answer: 99%

Question: And the kinase still bound, per cent of control (CIT (human))?
Answer: 96%

Question: What about the kinase still bound, per cent of control (DYRK2 (human)) of the same molecule?
Answer: 63%

Question: And the kinase still bound, per cent of control [1]?
Answer: 82%

Question: What about the kinase still bound, per cent of control (ERBB4 (human)) of the same molecule?
Answer: 89%

Question: And the kinase still bound, per cent of control [2]?
Answer: 100%

Question: What about the per cent of control (IGF1R (human)) of the same molecule?
Answer: 100%

Question: What about the kinase still bound, per cent of control [3] of the same molecule?
Answer: 100%

Question: And the kinase still bound, per cent of control [5]?
Answer: 100%

Question: And the kinase still bound, per cent of control [6]?
Answer: 80%

Question: What about the kinase still bound, per cent of control (LRRK2 (human)) of the same molecule?
Answer: 100%

Question: What about the kinase still bound, per cent of control (LYN (human)) of the same molecule?
Answer: 100%

Question: What about the kinase still bound, per cent of control (MAP2K4 (human)) of the same molecule?
Answer: 88%

Question: What about the kinase still bound, per cent of control (MAP3K11 (human)) of the same molecule?
Answer: 100%

Question: And the kinase still bound, per cent of control (MAPK9 (human))?
Answer: 76%

Question: What about the kinase still bound, per cent of control (MST1R (human)) of the same molecule?
Answer: 99%

Question: And the kinase still bound, per cent of control (NEK2 (human))?
Answer: 100%

Question: And the kinase still bound, per cent of control (NTRK1 (human))?
Answer: 72%

Question: What about the kinase still bound, per cent of control (OXSR1 (human)) of the same molecule?
Answer: 72%

Question: And the kinase still bound, per cent of control (PIK3CD (human))?
Answer: 0.95%

Question: And the kinase still bound, per cent of control (PIP5K1A (human))?
Answer: 97%

Question: And the kinase still bound, per cent of control (PLK1 (human))?
Answer: 55%

Question: What about the kinase still bound, per cent of control (PRKCD (human)) of the same molecule?
Answer: 100%

Question: And the kinase still bound, per cent of control (PRKCE (human))?
Answer: 82%

Question: And the kinase still bound, per cent of control (PRKG1 (human))?
Answer: 91%

Question: And the kinase still bound, per cent of control (PRPF4B (human))?
Answer: 100%

Question: What about the kinase still bound, per cent of control (RIPK1 (human)) of the same molecule?
Answer: 100%

Question: And the kinase still bound, per cent of control (RIPK4 (human))?
Answer: 71%

Question: And the kinase still bound, per cent of control (SRMS (human))?
Answer: 98%

Question: What about the kinase still bound, per cent of control (STK33 (human)) of the same molecule?
Answer: 95%

Question: What about the kinase still bound, per cent of control (STK38L (human)) of the same molecule?
Answer: 95%

Question: And the per cent of control (STK39 (human))?
Answer: 100%

Question: And the kinase still bound, per cent of control (TAOK1 (human))?
Answer: 83%

Question: And the kinase still bound, per cent of control (TNNI3K (human))?
Answer: 100%

Question: What about the kinase still bound, per cent of control [4] of the same molecule?
Answer: 86%
